Data taken from patent US20110201596A1, “Methods for Providing Oxidatively Stable Ophthalmic Compositions” (priority 2005, published 2011).
Counter-ions that a name gives are not always drawn.

Test: Stability of ketotifen fumarate in borate buffered saline over autoclave cycles, analysed by HPLC
Assay type: physicochemical
Settings: for % ketotifen: no PAA; for % ketotifen Unsparged: Example 3: buffer with poly(acrylic acid); for % ketotifen Nitrogen Sparged: Example 4: buffer with poly(acrylic acid); for ketotifen stability: after autoclaving
Method: A buffer solution was formed by dissolving 8.3 gm NaCl (from Sigma Aldrich), 9.1 gm boric acid (from Mallinckrodt) and 1 gm sodium borate (from Mallinckrodt) in 1 L deionized water (from Milli Q). […] Ketotifen fumarate (from Sigma Aldrich) was added to prepare a solution of approximately 80 ppm in the buffer solution. The ketotifen solution (3 mL) was placed in vials, autoclaved for the number of cycles shown in Table 1, below and analyzed as a function of autoclave cycle (3 replicate per autoclave cycle) using HPLC using an HP1100 and an Agilent Zorbax Eclipse XDB-C18 and Rapid Resolution HT 50×4.6 mm×1.8μ column and the following conditions:
Mobile Phase: • Eluent A: 17% acetonitrile in 0.025 M dihydrogen potassium phosphate buffer • 0.2% triethylamine, 0.13% o-phosphoric acid • Eluent B: 50% acetonitrile in 0.025 M dihydrogen potassium phosphate buffer • 0.2% triethylamine, 0.13% o-phosphoric acid
Example 1 was repeated, except that the buffer solution was sparged (with nitrogen) overnight (˜12 hrs) at about 370 standard cubic centimeter per minute (SCCM) and subsequently transferred to a nitrogen box (<0.5% oxygen). The ketotifen solution of about 90 ppm was prepared and placed in vials as described above, but in nitrogen box. The vials were autoclaved and analyzed as described in Example 1.
Examples 1 and 2 was repeated, except that 10 gm of poly(acrylic acid) (PAA, Mw, 225,000, from Polysciences, Inc., 20% in water) was added to the buffer solution. The vials were autoclaved and analyzed as described in Example 1.

- % ketotifen (Example 1: ~80 ppm in buffer pH 7.65, unsparged, autoclave cycle 0): 100%
- % ketotifen (Example 1: ~80 ppm in buffer pH 7.65, unsparged, autoclave cycle 1): 0%
- % ketotifen (Example 1: ~80 ppm in buffer pH 7.65, unsparged, autoclave cycle 2): 0%
- % ketotifen (Example 1: ~80 ppm in buffer pH 7.65, unsparged, autoclave cycle 3): 0%
- % ketotifen (Example 2: ~90 ppm, buffer nitrogen sparged ~12 hrs, nitrogen box, autoclave cycle 0): 100%
- % ketotifen (Example 2: ~90 ppm, buffer nitrogen sparged ~12 hrs, nitrogen box, autoclave cycle 1): 98%
- % ketotifen (Example 2: ~90 ppm, buffer nitrogen sparged ~12 hrs, nitrogen box, autoclave cycle 2): 98%
- % ketotifen (Example 2: ~90 ppm, buffer nitrogen sparged ~12 hrs, nitrogen box, autoclave cycle 3): 98%
- % ketotifen Unsparged (autoclave cycle 0): 100%
- % ketotifen Unsparged (autoclave cycle 1): 94%
- % ketotifen Unsparged (autoclave cycle 2): 81%
- % ketotifen Unsparged (autoclave cycle 3): 66%
- % ketotifen Nitrogen Sparged (autoclave cycle 0): 100%
- % ketotifen Nitrogen Sparged (autoclave cycle 1): 99%
- % ketotifen Nitrogen Sparged (autoclave cycle 2): 99%
- % ketotifen Nitrogen Sparged (autoclave cycle 3): 98%
- ketotifen stability (buffer sparged and solution kept under nitrogen (Table 2)): 98%
- ketotifen stability (unsparged buffer (Table 1)): 0%
SMILES: CN1CCC(=C2c3ccccc3CC(=O)c3sccc32)CC1 [ketotifen, Ketotifen fumarate]
